# In ChEMBL document CHEMBL4725377, “The neuronal calcium ion channel activity of constrained analogues of MONIRO-1” (Bioorg Med Chem, 2020):
# Columns and labels:
# [1] = Inhibition of human Cav3 expressed in HEK293 cells by whole cell patch clamp electrophysiology method; assay type: cell-based
# [2] = target: T1, Voltage-dependent N-type calcium channel subunit alpha-1B (Homo sapiens, UniProt Q00975); experiment: Inhibition of human Cav2.2 expressed in HEK293 cells by whole cell patch clamp electrophysiology method; assay type: cell-based
# [3] = target: T1, Voltage-dependent N-type calcium channel subunit alpha-1B; experiment: Inhibition of human N type calcium channel Cav2.2 endogenously expressed in SH-SY5Y cells assessed as calcium influx by FRIPR assay; assay type: cell-based
# [4] = target: Voltage-dependent T-type calcium channel subunit alpha-1H (Homo sapiens, UniProt O95180); experiment: Inhibition of human T type calcium channel Cav3.2 expressed in HEK-293T cells assessed as calcium influx by FRIPR assay; assay type: cell-based
# [5] = Stability of the compound in Sprague-Dawley rat plasma assessed as half-life measured by RP-HPLC; assay type: ADME, cell-free
# T1 sequence (Q00975 whole entry): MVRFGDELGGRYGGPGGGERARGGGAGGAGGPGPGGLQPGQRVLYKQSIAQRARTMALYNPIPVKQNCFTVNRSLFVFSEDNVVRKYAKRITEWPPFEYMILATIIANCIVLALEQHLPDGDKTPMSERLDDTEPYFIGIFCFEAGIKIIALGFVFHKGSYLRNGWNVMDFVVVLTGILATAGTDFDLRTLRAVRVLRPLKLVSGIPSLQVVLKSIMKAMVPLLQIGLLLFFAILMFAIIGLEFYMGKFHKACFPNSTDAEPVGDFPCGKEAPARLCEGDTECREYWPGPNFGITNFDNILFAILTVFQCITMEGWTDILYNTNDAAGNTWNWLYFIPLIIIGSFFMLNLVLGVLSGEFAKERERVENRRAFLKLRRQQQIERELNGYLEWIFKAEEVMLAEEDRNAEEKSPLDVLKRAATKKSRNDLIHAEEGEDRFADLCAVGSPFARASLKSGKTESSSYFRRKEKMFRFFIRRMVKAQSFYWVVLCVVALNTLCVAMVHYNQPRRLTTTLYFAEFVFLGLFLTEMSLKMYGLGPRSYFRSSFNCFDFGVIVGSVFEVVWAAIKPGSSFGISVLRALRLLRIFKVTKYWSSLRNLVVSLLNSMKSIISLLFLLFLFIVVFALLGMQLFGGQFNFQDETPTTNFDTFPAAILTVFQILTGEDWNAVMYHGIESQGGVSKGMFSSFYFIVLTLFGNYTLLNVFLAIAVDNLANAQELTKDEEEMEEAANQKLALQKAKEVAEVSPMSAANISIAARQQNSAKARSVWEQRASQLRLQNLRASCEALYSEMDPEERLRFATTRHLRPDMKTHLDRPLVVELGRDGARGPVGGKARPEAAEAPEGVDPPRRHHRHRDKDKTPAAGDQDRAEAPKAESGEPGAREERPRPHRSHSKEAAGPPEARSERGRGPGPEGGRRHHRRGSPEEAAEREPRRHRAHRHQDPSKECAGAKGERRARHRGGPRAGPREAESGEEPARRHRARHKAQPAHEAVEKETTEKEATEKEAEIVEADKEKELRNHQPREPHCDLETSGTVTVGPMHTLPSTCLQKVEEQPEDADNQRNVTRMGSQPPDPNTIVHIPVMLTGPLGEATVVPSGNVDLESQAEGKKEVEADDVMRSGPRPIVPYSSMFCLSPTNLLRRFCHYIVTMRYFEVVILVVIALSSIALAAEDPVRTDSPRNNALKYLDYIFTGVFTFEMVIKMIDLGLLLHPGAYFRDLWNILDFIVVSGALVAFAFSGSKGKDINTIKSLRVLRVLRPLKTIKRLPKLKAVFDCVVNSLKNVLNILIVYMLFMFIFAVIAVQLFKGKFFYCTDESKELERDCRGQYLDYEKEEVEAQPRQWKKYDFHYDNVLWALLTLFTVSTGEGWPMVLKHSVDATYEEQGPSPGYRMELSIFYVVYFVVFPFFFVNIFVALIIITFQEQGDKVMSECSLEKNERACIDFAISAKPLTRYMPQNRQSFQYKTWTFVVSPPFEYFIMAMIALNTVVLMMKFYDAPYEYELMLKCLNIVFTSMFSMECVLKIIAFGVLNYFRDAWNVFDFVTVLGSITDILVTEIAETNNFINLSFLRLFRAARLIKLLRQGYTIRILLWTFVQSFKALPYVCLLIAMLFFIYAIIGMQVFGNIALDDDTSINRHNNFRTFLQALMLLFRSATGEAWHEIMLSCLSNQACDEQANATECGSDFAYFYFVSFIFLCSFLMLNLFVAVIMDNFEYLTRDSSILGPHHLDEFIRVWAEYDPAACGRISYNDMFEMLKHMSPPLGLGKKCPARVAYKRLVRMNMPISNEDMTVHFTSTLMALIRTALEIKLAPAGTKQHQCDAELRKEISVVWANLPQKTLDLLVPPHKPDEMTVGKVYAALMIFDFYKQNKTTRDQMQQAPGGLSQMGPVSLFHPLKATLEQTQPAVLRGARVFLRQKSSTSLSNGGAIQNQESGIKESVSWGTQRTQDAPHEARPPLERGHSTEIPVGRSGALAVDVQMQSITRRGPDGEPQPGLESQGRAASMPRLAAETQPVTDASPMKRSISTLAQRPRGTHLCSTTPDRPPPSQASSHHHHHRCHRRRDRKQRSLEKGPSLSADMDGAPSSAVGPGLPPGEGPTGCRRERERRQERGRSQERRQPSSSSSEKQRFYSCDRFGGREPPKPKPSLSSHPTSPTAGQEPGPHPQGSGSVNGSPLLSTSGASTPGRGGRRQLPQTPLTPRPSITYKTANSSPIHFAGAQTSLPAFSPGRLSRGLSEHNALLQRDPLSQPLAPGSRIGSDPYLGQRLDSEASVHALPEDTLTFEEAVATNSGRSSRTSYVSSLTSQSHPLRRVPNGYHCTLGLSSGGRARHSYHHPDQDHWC
# Chain of Voltage-dependent T-type calcium channel subunit alpha-1H (O95180 whole entry): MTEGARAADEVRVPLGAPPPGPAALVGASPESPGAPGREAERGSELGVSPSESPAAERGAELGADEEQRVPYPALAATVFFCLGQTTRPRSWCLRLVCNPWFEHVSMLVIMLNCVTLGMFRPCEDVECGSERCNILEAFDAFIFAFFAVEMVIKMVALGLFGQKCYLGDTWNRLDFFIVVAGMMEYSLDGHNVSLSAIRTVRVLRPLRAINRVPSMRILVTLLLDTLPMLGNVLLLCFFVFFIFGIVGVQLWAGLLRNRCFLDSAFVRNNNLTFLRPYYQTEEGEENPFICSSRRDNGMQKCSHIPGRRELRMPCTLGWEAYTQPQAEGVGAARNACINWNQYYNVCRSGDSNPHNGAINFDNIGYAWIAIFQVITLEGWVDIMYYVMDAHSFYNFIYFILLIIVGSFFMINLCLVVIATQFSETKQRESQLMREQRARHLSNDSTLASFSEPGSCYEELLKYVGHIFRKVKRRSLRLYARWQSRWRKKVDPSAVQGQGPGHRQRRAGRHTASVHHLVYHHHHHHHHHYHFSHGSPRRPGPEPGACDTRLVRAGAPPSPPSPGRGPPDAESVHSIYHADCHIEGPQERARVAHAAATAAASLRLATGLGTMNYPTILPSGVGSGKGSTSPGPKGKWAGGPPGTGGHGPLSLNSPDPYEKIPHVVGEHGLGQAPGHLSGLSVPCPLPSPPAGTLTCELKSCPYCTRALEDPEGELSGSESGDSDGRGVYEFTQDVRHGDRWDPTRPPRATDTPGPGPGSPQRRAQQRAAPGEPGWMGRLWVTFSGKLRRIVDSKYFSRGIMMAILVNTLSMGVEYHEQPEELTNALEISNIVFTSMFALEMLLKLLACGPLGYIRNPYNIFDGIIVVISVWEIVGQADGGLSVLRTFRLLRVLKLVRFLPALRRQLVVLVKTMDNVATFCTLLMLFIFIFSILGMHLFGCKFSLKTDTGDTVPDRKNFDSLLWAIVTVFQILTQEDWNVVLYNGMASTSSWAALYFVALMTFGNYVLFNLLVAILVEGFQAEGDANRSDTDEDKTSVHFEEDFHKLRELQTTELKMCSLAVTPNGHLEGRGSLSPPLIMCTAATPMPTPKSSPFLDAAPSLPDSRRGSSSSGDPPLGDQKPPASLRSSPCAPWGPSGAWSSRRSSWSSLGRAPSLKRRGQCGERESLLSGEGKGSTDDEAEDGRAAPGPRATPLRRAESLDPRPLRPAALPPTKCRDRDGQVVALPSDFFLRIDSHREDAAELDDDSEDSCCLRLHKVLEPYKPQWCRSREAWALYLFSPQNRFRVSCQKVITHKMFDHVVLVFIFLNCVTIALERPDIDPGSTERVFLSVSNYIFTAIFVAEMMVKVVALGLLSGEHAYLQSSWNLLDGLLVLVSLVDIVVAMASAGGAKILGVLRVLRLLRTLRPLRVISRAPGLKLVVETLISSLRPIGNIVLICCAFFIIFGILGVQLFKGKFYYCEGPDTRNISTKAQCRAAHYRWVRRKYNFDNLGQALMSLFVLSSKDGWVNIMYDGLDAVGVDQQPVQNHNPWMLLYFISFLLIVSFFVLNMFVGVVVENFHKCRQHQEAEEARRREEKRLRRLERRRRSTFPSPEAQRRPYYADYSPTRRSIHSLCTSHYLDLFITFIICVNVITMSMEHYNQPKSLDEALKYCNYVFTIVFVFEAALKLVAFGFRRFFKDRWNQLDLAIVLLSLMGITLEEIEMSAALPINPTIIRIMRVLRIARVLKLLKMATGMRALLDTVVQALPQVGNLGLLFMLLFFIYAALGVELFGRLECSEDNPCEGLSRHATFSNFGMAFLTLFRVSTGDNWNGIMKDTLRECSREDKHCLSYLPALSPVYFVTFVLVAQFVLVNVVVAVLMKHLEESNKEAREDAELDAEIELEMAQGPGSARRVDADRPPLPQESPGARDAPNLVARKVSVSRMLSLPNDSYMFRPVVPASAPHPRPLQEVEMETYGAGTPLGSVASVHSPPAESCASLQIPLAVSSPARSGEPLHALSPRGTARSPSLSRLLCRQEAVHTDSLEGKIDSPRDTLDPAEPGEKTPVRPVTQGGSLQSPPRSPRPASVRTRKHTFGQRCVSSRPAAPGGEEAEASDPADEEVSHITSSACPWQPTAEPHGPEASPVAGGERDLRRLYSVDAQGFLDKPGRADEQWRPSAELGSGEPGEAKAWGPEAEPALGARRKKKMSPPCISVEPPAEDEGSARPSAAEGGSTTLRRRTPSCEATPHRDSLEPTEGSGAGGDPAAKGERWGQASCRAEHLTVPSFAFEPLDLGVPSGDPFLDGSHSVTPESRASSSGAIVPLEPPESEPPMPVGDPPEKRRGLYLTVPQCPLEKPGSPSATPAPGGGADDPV
IC50 [3],IC50 [4],SMILES,other results
185 µM,–,NC(N)=NCCCOc1ccc(C(=O)Nc2ccccc2Oc2ccc(F)cc2)cc1,IC50 [1]: 2000 nM; IC50 [2]: 34 µM
78 µM,80 µM,O=C(c1ccc(OCCCN2CCOCC2)cc1)N1c2ccccc2CCc2ccccc21,–
98 µM,110 µM,O=C(c1ccc(OCCCN2CCCC2)cc1)N1c2ccccc2CCc2ccccc21,–
–,–,CN(C)CCCOc1ccc(C(=O)N2c3ccccc3CCc3ccccc32)cc1,half-life [5]: > 2.5 days
26 µM,24 µM,COCCOC(=O)C1=C(C)NC(C)=C(C(=O)OC/C=C/c2ccccc2)C1c1cccc([N+](=O)[O-])c1 (configuration not stated) [CILNIDIPINE],–
107 µM,113 µM,O=C(c1ccc(OCCCN2CCCC2)cc1)N1c2ccccc2C=Cc2ccccc21,–
62 µM,55 µM,Cc1cccc(C)c1Oc1ccccc1NC(=O)c1ccc(OCCCN(C)C)cc1,–
49 µM,19 µM,CN(C)CCCOc1ccc(C(=O)Nc2ccccc2Oc2ccccc2)cc1,–
–,164 µM,NC(N)=NCCCOc1ccc(C(=O)N2c3ccccc3Oc3ccccc32)cc1,–
–,133 µM,O=C(c1ccc(OCCCN2CCOCC2)cc1)N1c2ccccc2Oc2ccccc21,–
–,–,CN(C)CCCOc1ccc(C(=O)N2c3ccccc3C=Cc3ccccc32)cc1,half-life [5]: > 2.5 days
–,49 µM,O=C(c1ccc(OCCCN2CCCC2)cc1)N1c2ccccc2Oc2ccccc21,–
259 µM,193 µM,O=C(c1ccc(OCCCN2CCOCC2)cc1)N1c2ccccc2C=Cc2ccccc21,–
